Results taken from patent US20050118188A1, “Pharmaceutical composition for immunization against AIDS” (Aventis Pasteur, S.A., priority 2000, published 2005).

Tested on: female BALB/c By J Ico mice
Details: mouse, in vivo

CC(C)CCC[C@@H](C)[C@H]1CC[C@H]2[C@@H]3CC=C4C[C@@H](OC(=O)NCCN(C)C)CC[C@]4(C)[C@H]3CC[C@]12C.Cl [DCchol, DC-Chol hydrochloride]
Adjuvant effect on local IgA responses (in words): marked adjuvant effect
Adjuvant effect on serum anti-gp160 antibodies (in words): good adjuvant
Factor by which IgA normalized specific activities (NSA) were multiplied compared to gp160 alone: 12
